Where a name gives a salt, the structure may show the parent alone.
How the values were obtained:
A549 [1] = experiment: Cytotoxicity against human A549 cells by SRB assay; assay type: functional, cell-based
KB [2] = experiment: Cytotoxicity against human KB cells by SRB assay; assay type: functional, cell-based
HT-29 [3] = experiment: Cytotoxicity against human HT-29 cells by SRB assay; assay type: functional, cell-based
HL-60 [4] = experiment: Cytotoxicity against human HL60 cells by MTT assay; assay type: functional, cell-based
A549 [5] = experiment: Cytotoxicity against human A549 cells assessed as inhibition of cell viability at 10 uM by SRB assay relative to control; assay type: functional
KB [6] = experiment: Cytotoxicity against human KB cells assessed as inhibition of cell viability at 10 uM by SRB assay relative to control; assay type: functional
HL-60 [7] = experiment: Cytotoxicity against human HL60 cells assessed as inhibition of cell viability at 10 uM by MTT assay relative to control; assay type: functional
HT-29 [8] = experiment: Cytotoxicity against human HT-29 cells assessed as inhibition of cell viability at 10 uM by SRB assay relative to control; assay type: functional

Row | Compound | IC50 (A549 [1]) [nM] | IC50 (KB [2]) [nM] | IC50 (HT-29 [3]) [nM] | IC50 (HL-60 [4]) [nM] | inhibition at 10 µM (A549 [5]) [%] | inhibition at 10 µM (KB [6]) [%] | inhibition at 10 µM (HL-60 [7]) [%] | inhibition at 10 µM (HT-29 [8]) [%]
1 | Cc1cc(=O)cc2c3c1[C@@H]1O[C@H]4C5OC(=O)C(CC2)([C@@H]4C)[C@H]3[C@@]51O | 1330 | 964 | 817 | 464 |  |  |  | 
2 | Cc1cc(=O)cc2c3c1C[C@@H]1[C@@H]4C[C@@H](C)C(CC2)(C(=O)O4)[C@]31O | 6090 | 2650 | 3220 | 1240 |  |  |  | 
3 | C[C@@H]1C[C@@H]2OC(=O)C13CC[C@@]14C[C@@H](OC1=O)[C@H](O)[C@](C)(O)C1=C4[C@@H]3[C@@H]2C1 |  |  |  |  | < 50 | < 50 | < 50 | < 50
4 | C=C1[C@H](O)CC[C@@]2(CO)CCC34C(=O)O[C@@H](C[C@H]3C)[C@H]3C[C@H]1[C@@H]2[C@H]34 |  |  |  |  | < 50 | < 50 | < 50 | < 50
5 | Cc1ccc2c3c1C[C@@H]1[C@@H]4C[C@@H](C)C(CC2=O)(C(=O)O4)[C@]31O |  |  |  |  | < 50 | < 50 | < 50 | < 50
6 | C[C@@H]1C[C@@H]2OC(=O)C13CC[C@]14C[C@H](C=C(CO)[C@H]5C[C@H]2[C@H]3[C@@H]51)OC4=O |  |  |  |  | < 50 | < 50 | < 50 | < 50
7 | Cc1cc(=O)cc2c3c1C[C@@H]1[C@@H]4C[C@@H](C)C(C=C2)(C(=O)O4)[C@]31O |  |  |  |  | < 50 | < 50 | < 50 | < 50
8 | Cc1c(O)cc2c3c1[C@@H]1O[C@H]4C5OC(=O)C(CC2)([C@@H]4C)[C@H]3[C@@H]51 |  |  |  |  | < 50 | < 50 | < 50 | < 50
9 | CC1=CCC[C@@]2(CO)CCC34C(=O)O[C@@H](C[C@H]3C)[C@H]3C[C@H]1[C@@H]2[C@H]34 |  |  |  |  | < 50 | < 50 | < 50 | < 50
10 | COC(=O)c1cc(C)c2c3c1C(=O)CC14C(=O)O[C@@H](C[C@H]1C)[C@@H](C2)[C@@]34O |  |  |  |  | < 50 | < 50 | < 50 | < 50
11 | Cc1c(O)cc2c3c1C[C@@H]1[C@@H]4C[C@@H](C)C(CC2)(C(=O)O4)[C@H]31 |  |  |  |  | < 50 | < 50 | < 50 | < 50
12 | CC1=C[C@H]2C[C@]3(CCC45C(=O)O[C@@H](C[C@H]4C)[C@H]4C[C@H]1[C@@H]3[C@H]45)CO2 |  |  |  |  | < 50 | < 50 | < 50 | < 50
13 | COc1cccc2c1C(=O)c1c(O)c3c(c(O)c1C2=O)C[C@@](O)(C(=O)CO)C[C@@H]3O[C@H]1C[C@H](N)[C@H](O)[C@H](C)O1 [DOXORUBICIN HYDROCHLORIDE] |  | 570 | 559 | 76 |  |  |  | 
